# US20200206349A1, “Immunothermosensitive Composite, Kit For Treating Cancer, And Use Thereof” (National Tsing Hua University, priority 2018, published 2020)
# Key:
# CT26 cells = assay: Cytotoxicity, CellTiter-Glo cell viability assay; type: cell-based, murine; conditions: 0.625 μg/mL to 10 μg/mL, 24 hours
# Protocol: The experiment further includes untreated CT26 cells, the CT26 cells treated with free R848 or the CT26 cells treated with the carrier PANI-GCS as a control. […] The CT26 cells are seeded in 96-well plates at 1×10^4 cells/well for 24 hours. […] The viability of the CT26 cells is evaluated by the CellTiter-Glo® Luminescent Cell Viability Assay kit (Promega, Madison, Wis., USA).
# BMDCs = assay: Proinflammatory cytokines secreted by BMDCs (bead arrays); type: cell-based, Balb/c mice
# Protocol: The dendritic cells used in the experiment are dendritic cells differentiated from bone marrow cells (BMDC). […] After 10 days, suspended immature BMDCs are collected for further experiments. […] The cellular uptake of the f-PANI-GCS-R848 by the BMDCs is measured by flow cytometry and immunofluorescence staining. The experiment further includes the BMDCs treated with medium only as a control. Flow cytometry is performed to measure the cell uptake of f-PANI-GCS-R848 by BD Accuri™ C6 flow cytometer (BD Biosciences, San Jose, Calif., USA), and data are analyzed using FlowJo (Treestar, Ashland, Oreg., USA). In immunofluorescence staining, LysoTracker is used as a cell marker for endosome. The BMDCs are incubated with LysoTracker™ Red DND-99 (Thermo Fischer Scientific) containing medium for 2 hours, washed, and stained with 4′,6-diamidino-2-phenylindole (DAPI) in PBS for 10 minutes. Finally, the BMDCs are observed and imaged under a confocal laser scanning microscopy (CLSM, LSM 780, Carl Zeiss, Jena, Germany). […] The BMDCs and the culture supernatants are then collected separately. The expression of mature dendritic cell markers CD80 and CD86 in the treated BMDCs are analyzed by flow cytometry, and the concentrations of inflammatory cytokines secreted by mature dendritic cells in the supernatant are measured by […] beads arrays (CBA, BD Bioscience). The experiment further includes the BMDCs treated with medium only as negative controls (represented as “PBS”). The flow cytometry includes follow steps. The BMDCs are incubated with APC-conjugated anti-mouse CD80 antibody (eBioscience) or FITC-conjugated anti-mouse CD86 Antibody (eBioscience), and then analyzed by BD Accuri™ C6 flow cytometer.
# CT26 primary tumor = assay: Animal treatment test: primary tumor size and survival; type: in vivo, Balb/c mice; conditions: without NIR; treated day 14, 21, 28
# Protocol: Experimental animals used in the experiments are Balb/c mice (6-8 weeks old), which are purchased from BioLASCO Taiwan Co., Ltd. (Taipei, Taiwan). All the animal experiments are performed according to “Guide for the Care and Use of Laboratory Animals” developed by the Institute of Laboratory Animal Resources, National Research Council. Balb/c mice are inoculated with 1×10^6 CT26 cells subcutaneously on their right flanks (primary tumor). Fourteen days later when the tumor diameter is about 5 mm (or the tumor volumes reach 150-200 mm^3), the Balb/c tumor mice are established and further used to test the cancer treatment effects on the immunothermosensitive composition and the kit for treating cancer of the present disclosure, and whether the immunothermosensitive composition and the kit for treating cancer of the present disclosure can achieve the dual effects of hyperthermia therapy and immunotherapy.
# Further, the cancer treatment effects on the immunothermosensitive composition and the kit for treating cancer of the present disclosure is confirmed in the experiment. […] The size of each primary tumor, which is estimated as length×width×height×π/6, is assessed using a pair of caliper every 2-3 days. […] The Balb/c tumor mice with the rechallenged tumor are no longer treated, but the size of each rechallenged tumor is observed and recorded. […]
# [1] = at 24 hours, 5 μg/mL free R848, 50 μg/mL PANI-GCS-R848
# [2] = at 48 hours and 72 hours (after 24 hours)
compound,measurement,setting,value
"CCOCc1nc2c(N)nc3ccccc3c2n1CC(C)(C)O [R848, resiquimod]",cytotoxicity (cell viability),CT26 cells,not significantly cytotoxic
same,IL-6 secretion,BMDCs; [1],notable levels
same,TNF-α secretion,BMDCs; [1],notable levels
same,IL-6 secretion,BMDCs; [2],do not change significantly
same,TNF-α secretion,BMDCs; [2],do not change significantly
same,growth of the primary tumor,CT26 primary tumor,slightly delayed
